In patent publication US20200270309A1, “MALEIMIDE GROUP-MODIFIED ANGIOGENESIS INHIBITOR HM-1 AND USE THEREOF” (NANJING ANJI BIOLOGICAL TECHNOLOGY CO., LTD, priority 2017, published 2020):
Where two headings read alike, the source gives them in different places. Peptide text beside a SMILES is read from it. * marks the point of attachment. Hexanoyl(6-maleimido) = O=C1C=CC(=O)N1CCCCCC(=O)*; X73 = O=C1C=CC(=O)N1c1ccc(CCCCCCCCCC(=O)*)cc1; X53 = O=C1C=CC(=O)N1CCOCCOCCOCCOCCCCCCC(=O)*; X27 = O=C1C=CC(=O)N1CCOCCOCCOCCOCCCCCC(=O)*; X43 = O=C1C=CC(=O)N1c1ccc(CCCCCCC(=O)*)cc1; X28 = O=C1C=CC(=O)N1CCOCCOCCOCCCCCCC(=O)*; X6 = O=C1C=CC(=O)N1CCOCCOCCOCCCCCCCC(=O)*; X51 = O=C1C=CC(=O)N1c1ccccc1CC(=O)*

Assay: Half-lives and pharmacokinetic parameters of polypeptides vs HM-1
Details: in vivo

AUC(0-inf)	MRT inf	clearance	half-life (T1/2β (half-life))	AUC(0-inf) (read-out: AUC0-∞)	clearance (read-out: CL (converted))	MRT inf (read-out: MRT0-∞)	half-life (read-out: T1/2β (half-life) (converted))	SMILES
24300 ± 8330 ng·h/mL	43.5 ± 12 h	0.685 mL/min/kg	30.15 ± 0.26 h	–	–	–	–	C[C@H](NC(=O)CNC(=O)[C@H](CCCNC(=N)N)NC(=O)CCCCCCCCCc1ccc(N2C(=O)C=CC2=O)cc1)C(=O)N[C@@H](CC(=O)O)C(=O)N[C@@H](CCCNC(=N)N)C(=O)N[C@@H](C)C(=O)NCC(=O)NCC(=O)NCC(=O)NCC(=O)N[C@@H](CCCNC(=N)N)C(=O)NCC(=O)N[C@@H](CC(=O)O)C(=O)O [X45] (X73-RGADRAGGGGRGD-OH)
33600 ± 7340 ng·h/mL	60 ± 12.5 h	0.497 mL/min/kg	41.58 ± 0.34 h	–	–	–	–	C[C@H](NC(=O)CNC(=O)[C@H](CCCNC(=N)N)NC(=O)Cc1ccccc1N1C(=O)C=CC1=O)C(=O)N[C@@H](CC(=O)O)C(=O)N[C@@H](CCCNC(=N)N)C(=O)N[C@@H](C)C(=O)NCC(=O)NCC(=O)NCC(=O)NCC(=O)N[C@@H](CCCNC(=N)N)C(=O)NCC(=O)N[C@@H](CC(=O)O)C(=O)O [X13] (X51-RGADRAGGGGRGD-OH)
–	–	–	–	24600 ± 7030 ng·h/mL	0.677 mL/min/kg	44.1 ± 11 h	30.6 ± 0.31 h	CC(C)[C@H](NC(=O)[C@H](C)NC(=O)CNC(=O)[C@H](CCCNC(=N)N)NC(=O)CCCCCN1C(=O)C=CC1=O)C(=O)N[C@@H](CC(=O)O)C(=O)N[C@@H](CCCNC(=N)N)C(=O)N[C@@H](C)C(=O)NCC(=O)NCC(=O)NCC(=O)NCC(=O)N[C@@H](CCCNC(=N)N)C(=O)NCC(=O)N[C@@H](CC(=O)O)C(=O)O [P10] ({Hexanoyl(6-maleimido)}-RGAVDRAGGGGRGD-OH; C-terminus assumed)
26700 ± 6960 ng·h/mL	47.8 ± 13.9 h	0.623 mL/min/kg	33.15 ± 0.25 h	–	–	–	–	C[C@H](NC(=O)CNC(=O)[C@H](CCCNC(=N)N)NC(=O)CCCCCCOCCOCCOCCOCCN1C(=O)C=CC1=O)C(=O)N[C@@H](CC(=O)O)C(=O)N[C@@H](CCCNC(=N)N)C(=O)N[C@@H](C)C(=O)NCC(=O)NCC(=O)NCC(=O)NCC(=O)N[C@@H](CCCNC(=N)N)C(=O)NCC(=O)N[C@@H](CC(=O)O)C(=O)O [X75] (X53-RGADRAGGGGRGD-OH)
26900 ± 8290 ng·h/mL	48.2 ± 14.3 h	0.62 mL/min/kg	33.38 ± 0.32 h	–	–	–	–	C[C@H](NC(=O)CNC(=O)[C@H](CCCNC(=N)N)NC(=O)CCCCCCCOCCOCCOCCN1C(=O)C=CC1=O)C(=O)N[C@@H](CC(=O)O)C(=O)N[C@@H](CCCNC(=N)N)C(=O)N[C@@H](C)C(=O)NCC(=O)NCC(=O)NCC(=O)NCC(=O)N[C@@H](CCCNC(=N)N)C(=O)NCC(=O)N[C@@H](CC(=O)O)C(=O)O [X69] (X6-RGADRAGGGGRGD-OH)
33700 ± 7090 ng·h/mL	60.4 ± 13.7 h	0.495 mL/min/kg	41.82 ± 0.29 h	–	–	–	–	C[C@H](NC(=O)CNC(=O)[C@H](CCCNC(=N)N)NC(=O)CCCCCOCCOCCOCCOCCN1C(=O)C=CC1=O)C(=O)N[C@@H](CC(=O)O)C(=O)N[C@@H](CCCNC(=N)N)C(=O)N[C@@H](C)C(=O)NCC(=O)NCC(=O)NCC(=O)NCC(=O)N[C@@H](CCCNC(=N)N)C(=O)NCC(=O)N[C@@H](CC(=O)O)C(=O)O [X74] (X27-RGADRAGGGGRGD-OH)
27100 ± 8010 ng·h/mL	48.5 ± 10.6 h	0.615 mL/min/kg	33.58 ± 0.24 h	–	–	–	–	C[C@H](NC(=O)CNC(=O)[C@H](CCCNC(=N)N)NC(=O)CCCCCCc1ccc(N2C(=O)C=CC2=O)cc1)C(=O)N[C@@H](CC(=O)O)C(=O)N[C@@H](CCCNC(=N)N)C(=O)N[C@@H](C)C(=O)NCC(=O)NCC(=O)NCC(=O)NCC(=O)N[C@@H](CCCNC(=N)N)C(=O)NCC(=O)N[C@@H](CC(=O)O)C(=O)O [X42] (X43-RGADRAGGGGRGD-OH)
31800 ± 7920 ng·h/mL	57 ± 10.3 h	0.523 mL/min/kg	39.52 ± 0.34 h	–	–	–	–	C[C@H](NC(=O)CNC(=O)[C@H](CCCNC(=N)N)NC(=O)CCCCCCOCCOCCOCCN1C(=O)C=CC1=O)C(=O)N[C@@H](CC(=O)O)C(=O)N[C@@H](CCCNC(=N)N)C(=O)N[C@@H](C)C(=O)NCC(=O)NCC(=O)NCC(=O)NCC(=O)N[C@@H](CCCNC(=N)N)C(=O)NCC(=O)N[C@@H](CC(=O)O)C(=O)O [X68] (X28-RGADRAGGGGRGD-OH)
